{"source": "patent US20090176711A1", "about": "“INHIBITORS OF AMYLOID PRECURSOR PROTEIN PROCESSING” (priority 2008, published 2009)", "key": {"[1]": {"system": "γ-secretase cleavage in KEK293 APP cells", "test": "Cell based γ-secretase assay (α-CTF Western)", "parameters": "species or system human", "details": "cells treated for 9 hours", "protocol": "In order to test these peptides in the cell for their inhibitory effect on γ-secretase cleavage, a cell based assay was developed. After KEK293 APP cells were cultured in 6 well culture plates with 90% confluency, the cells were treated for 9 hours with N-[N-(3,5-difluorophenacetyl)-L-alanyl]-(S)-phenylglycine t-butyl ester (DAPT) (Dovey H F et al, J. Neurochemistry 2001;76:173-181), which is a known γ-secretase inhibitor, and complementary peptides. The cells in each well were lysed and these lysates were separated with 15% tris-tricine gel. Western analysis was performed with R1 antibody as primary antibody and goat anti-rabbit-HRP as secondary antibody."}, "[2]": {"system": "cleavage of Sub M by rhBACE1", "test": "HPLC analysis of the cleavage of Sub M by rhBACE1", "assay_type": "biochemical, human", "details": "25-fold amount of inhibitor, 420 nM β-secretase", "protocol": "Substrate M (100 μM) was preincubated with complementary peptides ([…]) in assay buffer (100 μl) overnight at RT. rhBACE (140 nM) in assay buffer was added and incubated for 11 hr at RT. Cleavage products of Substrate M by rhBACE were quantitated after separation by C-18 reversed-phase column chromatography (GRACE VyDAC).\nOne of the advantages of the APP inhibitor described in the present invention is that it is a peptide or a mimetic that bind to the β-secretase cleavage site of APP, thus not affecting other β-secretase substrates. To confirm the specificity of the inventive APP inhibitor, two different types of substrates were used, APP Sub M and ST6Ga11. Both substrates are cleaved by β-secretase under normal conditions and the effect of the inventive APP inhibitor on the substrate cleavage was monitored by HPLC (See the schematic diagram in FIG. 16.) To carry out these experiments, the concentration of β-secretase required for cleavage of both substrates was determined as shown in FIG. 17. For substantial cleavage of ST6Ga11 substrate, 420 nM of the enzyme was required. Therefore, 420 nM of β-secretase was used for the following experiment.\nReversed-phase HPLC was also used to analyze the products of enzyme action in vitro. […] The cleavage products were identified at 215 nm and quantitated by integrating the area under each peak. […]"}, "[3]": {"system": "cleavage of Substrate M by β-secretase", "test": "Inhibition of cleavage of Substrate M by β-secretase by complementary and deletion peptides (Examples 1, 5, 6; assay format not stated)", "assay_type": "biochemical", "details": "for concentration dependent inhibitory activity, activity group: various concentrations, Substrate M (FIG. 8)", "protocol": "So far we have focused on c-Sub M peptide. Serial deletions were made from N-terminus or C-terminus of c-Sub M (FIG. 5), and we investigated effect of the deletions on the cleavage of Substrate M. The optimum peptide/substrate ratio for inhibition on the cleavage of substrate was determined by observing the inhibition percentage at various peptide/substrate ratios (FIG. 4). Subsequently, the inhibitory activity of the deletion peptides were tested at 10 inhibitor/substrate ratio and the concentration of the Substrate M was 50 μM. Deletion of the first two amino acids from the N-terminus had little effect on the activity and deletion of five amino acids from the C-terminus of c-Sub M had little effect on the inhibitory activity (FIG. 6). Further deleted peptides were tested for inhibitory activity on the cleavage of Substrate M (FIG. 7).\nThe above-mentioned peptides that have inhibitory activity were tested at various concentrations for their inhibitory activities on their mutant substrate Substrate M (FIG. 8)."}, "[4]": {"system": "γ-secretase (membrane fractions of N2a cells)", "test": "γ-Secretase activity assay on membrane fractions of N2a cells", "assay_type": "biochemical, mouse", "details": "200 μM peptide, 12.5 μM fluorogenic substrate, 1 hour preincubation", "protocol": "Since γ-secretase is composed of four components, cloning of γ-secretase gene is impossible. Therefore, cell extracts were used as γ-secretase source. To obtain the cell extracts, after cell lysis with extraction buffer, the lysate was centrifuged at 10,000×g for 1 minute. Afterward, 2× reaction buffer and fluorogenic substrate was mixed and added to the cell lysate. Then, this mixture was incubated at 37° C. and γ-secretase activity was detected at excitation 335 to 355 nm and emission 495 to 510 nm.\nγ-Secretase activity assay was performed on membrane fractions of N2a cells in the presence of several complementary peptides. After 12.5 μM fluorogenic substrate and 200 μM each of the complementary peptides were preincubated for 1 hour, γ-secretase was added to the mixture. In the course of time, the fluorogenic substrate was cleaved by the γ-secretase."}, "rhBACE1": {"target": "T1, rhBACE1 (Homo sapiens, UniProt P56817)", "T1 construct": "purchased R&D Systems, Inc", "T1 sequence (P56817 46-501)": "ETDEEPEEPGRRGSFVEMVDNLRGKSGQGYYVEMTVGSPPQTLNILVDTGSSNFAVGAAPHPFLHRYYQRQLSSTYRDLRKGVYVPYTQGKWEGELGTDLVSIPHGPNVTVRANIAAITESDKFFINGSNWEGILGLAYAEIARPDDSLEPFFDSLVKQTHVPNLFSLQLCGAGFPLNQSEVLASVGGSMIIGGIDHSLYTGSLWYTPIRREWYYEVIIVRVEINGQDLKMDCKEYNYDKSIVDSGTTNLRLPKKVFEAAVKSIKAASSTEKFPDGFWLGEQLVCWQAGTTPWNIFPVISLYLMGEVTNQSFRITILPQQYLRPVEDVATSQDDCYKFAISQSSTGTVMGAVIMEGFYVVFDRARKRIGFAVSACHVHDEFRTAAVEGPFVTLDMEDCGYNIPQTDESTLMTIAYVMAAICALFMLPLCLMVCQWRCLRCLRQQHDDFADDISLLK", "test": "ELISA binding of rhBACE1 to immobilized c-Sub M", "excerpt": "In one embodiment of the present invention, four HC decapeptides targeted to either wild type APP or APPsw may be designed. […] Therefore, there is possibility that c-Sub M or any compounds derived from c-Sub M may inhibit production of Aβ from wild type APP in cells."}, "HEK293-APP cells": {"system": "HEK293-APP cells", "test": "Transport of peptides into cells (FITC label)", "assay_type": "cell-based, human", "excerpt": "To overcome the problem of APP inhibitor's inability to penetrate across the cell membrane, APP inhibitors were coupled with oligo-arginine (R9 means 9 Arginines), which is known to be a transporter peptide. These coupled peptides were labeled with FITC (Fluorescein isothiocyanate) using a linker AHX (aminohexanoic acid) to investigate whether the inhibitors pass through the cell membrane. FITC-AHX-c-Sub M-R9 and FITC-AHX-c-Sub MΔN1C1-R9 were made.\nOligo-arginine coupled APP inhibitors that were labeled with FITC were added to HEK293-APP cells to see whether the peptides pass through the cell membrane."}, "[5]": {"target": "T2, Substrate W (Sub W, SEVKMDAEFR; β-secretase cleavage site of wild type APP) (Homo sapiens, UniProt P05067)", "T2 construct": "[…]; purchased Peptron, Inc; host or cells: chemical synthesis", "test": "Binding of biotin-labeled Substrate W to immobilized complementary (HC) peptides", "protocol": "(§1) Complementary peptides (0.2, 2, 20, and 200 μM) were dissolved in phosphate buffered saline (PBS) (pH 7.4) and fixed to microtiter wells for 5 hr at 37° C. The wells were blocked with blocking buffer (3% BSA/PBS) for 1 hr at 37° C. Either N-terminally biotinylated Substrate W or M (20 μM) in blocking buffer was added and incubated for overnight at 4° C. Streptavidin-horseradish peroxidase in blocking buffer was added to detect resulting bound substrates. The plate was incubated for 2 hr at room temperature (RT), followed by addition of 3,3′,5,5′-tetramethyl-benzidine (TMB) as substrate for horseradish peroxidase for color reaction.\nIn particular, for Substrate W, complementary peptides (200 μM) dissolved in phosphate buffered saline (PBS) (pH 7.4) were chemically coupled to Reacti-Bind Maleic Anhydride Activated Polystyrene wells (Pierce Biotechnology, Inc.) for overnight at room temperature (RT). Remaining active sites of the plate were inactivated by adding ethanolamine (1 M) for 1 hr at RT. The wells were blocked with blocking buffer (3% BSA/PBS) for 1 hr at RT. N-terminally biotinylated Substrate W (20 μM) in blocking buffer was added and incubated for 3 hr at RT. Streptavidin-horseradish peroxidase in blocking buffer was added to detect resulting bound substrates. The plate was incubated for 2 hr at room temperature (RT), followed by addition of 3,3′,5,5′-tetramethyl-benzidine (TMB) as substrate for horseradish peroxidase for color reaction.\n(§2) Reacti-Bind™ maleic anhydride-activated polystyrene plate (Pierce, IL, USA) was coated with 50 μl of HC peptide (200 μM in distilled water) by chemical coupling for 3 h at room temperature (RT) and washed three times with phosphate buffered saline (PBS) containing 0.05% tween 20 (PBST). The plate was blocked with blocking buffer (0.5% gelatin in PBS) for 1 h at RT. After discarding blocking buffer, biotinylated BACE1 substrates (200 μM) in blocking buffer was applied on the plate and incubated for 2.5 h at RT. Each well was washed three times with PBST. The bound biotinylated BACE1 substrates were detected by incubation with streptavidin-horseradish peroxidase (Str-HRP, 125 mU/ml in blocking buffer) for 2 h at RT. Color reaction was carried out with 50 μl of 3,3′,5,5′-Tetramethylbenzidine Liquid Substrate (Sigma-Aldrich, MO, USA). After stopping the reaction by addition of an equal volume of 1 N HCl, absorbance at 450 nm was read in an automated ELISA reader (EL 312e, Bio-Tek Instruments, VT, USA). All assays were carried out in duplicate."}, "[6]": {"system": "Substrate M (Sub M, SEVNLDAEFR; β-secretase cleavage site of APPsw)", "test": "Binding of biotin-labeled Substrate M to immobilized complementary (HC) peptides", "details": "for binding activity for Sub M: HC peptides chemically coupled to plate, bio-Sub M", "protocol": "as §1, §2"}, "[7]": {"system": "APP processing in HEK293-APP cells", "test": "APP inhibitor activity on HEK293-APP cells (βCTF Western blot)", "assay_type": "cell-based, human", "details": "γ-secretase inhibitor and cholesterol added", "protocol": "In the neuronal cells of the brain, APP is processed by α-secretase or β-secretase. To investigate the effects of the inhibitors on the cell, a cell based assay system was developed as described in FIG. 10. C-terminal fragment of APP remaining on the cell membrane was detected by Western blot. The resulting C-terminal fragments, αCTF or βCTF are further processed by γ-secretase. However, if the cells are treated with the γ-secretase inhibitor, this processing is blocked. As a result, αCTF or βCTF accumulate in the cell. If β-secretase inhibitor or APP inhibitor is added, this processing is blocked and βCTF disappears.\nIn addition, γ-secretase inhibitor and cholesterol were added to the cells to increase βCTF level. Commercially available peptide-based β-secretase inhibitor was included as control (Lane 6, FIG. 11). To detect the N-terminal fragment of β-amyloid which is a product of APP processing, 6E10 antibody was employed. […] Recently, it has been reported that the commercially available peptide-based inhibitor had to be linked to an oligoarginine transporter peptide to have inhibitory activity against cells. Therefore, mimetic approach is adopted to produce cell permeable analogs. (Chang et al. J. Neurochemistry 2004; 89:1409-1416).\nAfter confirming the ability of the oligo-arginine coupled APP inhibitors to enter the cells, the inhibitors were applied to HEK293-APP cells overexpressing APP to test their inhibitory activities on APP processing. […] This inhibitor started to show significant inhibitory activity beginning from 0.1 μM (lower panel)."}}, "note": "“Also recorded” adds a separate entry of the source. No end group written: not given here."}
{"compound": "C[C@H](NC(=O)Cc1cc(F)cc(F)c1)C(=O)N[C@H](C(=O)OC(C)(C)C)c1ccccc1", "note": "[DAPT, N-[N-(3,5-difluorophenacetyl)-L-alanyl]-(S)-phenylglycine t-butyl ester]", "values": [{"measurement": "inhibition of γ-secretase activity in cells (α-CTF accumulation)", "setting": "[1]", "result": "inhibits γ-secretase activity very effectively"}]}
{"compound": "FCIQIHF (also: cyclic, mode of cyclisation not given here) [c-Sub M ΔN2C1]", "values": [{"measurement": "Sub M cleavage blocked", "setting": "[2]", "result": "about 60%"}, {"measurement": "concentration dependent inhibitory activity, activity group", "setting": "[3]", "result": "most active group"}]}
{"compound": "PQQYRCHRQR [rCh2 (3′→5′)]", "values": [{"measurement": "inhibitory effect on γ-secretase activity", "setting": "[4]", "result": "about 80%"}]}
{"compound": "SEFCIQIHFR-NH2 [c-Sub M, SEFCIQIHFR]", "values": [{"measurement": "binding to rhBACE1", "setting": "rhBACE1", "result": "does not bind to rhBACE1"}, {"measurement": "transport into the cells", "setting": "HEK293-APP cells", "result": "does not enter the cells"}, {"measurement": "binding to Sub W relative to c-Sub W", "setting": "[5]; HC peptides chemically coupled, bio-Sub W", "result": 4, "unit": "fold"}, {"measurement": "binding to Substrate W", "setting": "[5]; complementary peptide immobilized, biotin-labeled Substrate W", "result": "binds the wild type substrate Sub W efficiently"}, {"measurement": "binding activity for Sub M", "setting": "[6]", "result": "highest binding"}, {"measurement": "binding activity for Sub M", "setting": "[6]; listed as c-Sub", "result": "bound"}, {"measurement": "binding to Substrate M", "setting": "[6]; complementary peptide immobilized, biotin-labeled Substrate M", "result": "binds to Sub M appreciably and bind and binds its substrate Sub M"}, {"measurement": "absorbance in binding test", "setting": "[6]; substrate not specified", "result": "high absorbance"}, {"measurement": "inhibitory activity on APP processing (βCTF)", "setting": "[7]", "result": "does not inhibit the processing of APP in cells; also recorded: none of the inhibitors tested showed inhibitory activity"}, {"measurement": "inhibition of cleavage of Substrate M by β-secretase", "setting": "[3]; FIG. 4", "result": "inhibit cleavage"}, {"measurement": "concentration dependent inhibitory activity, activity group", "setting": "[3]", "result": "less activity"}]}
